{"source": "patent US11453697B1", "about": "“Cyclic di-nucleotide compounds as sting agonists” (Merck Sharp & Dohme Corp., priority 2015, dated 2022)"}
{"target": "full-length HAQ STING (Homo sapiens (Human), UniProt Q86WV6, G230A/H232R/R293Q/R71H)", "sequence (Q86WV6 other isoform, or with tags, fused parts or gaps, stated change not applied)": "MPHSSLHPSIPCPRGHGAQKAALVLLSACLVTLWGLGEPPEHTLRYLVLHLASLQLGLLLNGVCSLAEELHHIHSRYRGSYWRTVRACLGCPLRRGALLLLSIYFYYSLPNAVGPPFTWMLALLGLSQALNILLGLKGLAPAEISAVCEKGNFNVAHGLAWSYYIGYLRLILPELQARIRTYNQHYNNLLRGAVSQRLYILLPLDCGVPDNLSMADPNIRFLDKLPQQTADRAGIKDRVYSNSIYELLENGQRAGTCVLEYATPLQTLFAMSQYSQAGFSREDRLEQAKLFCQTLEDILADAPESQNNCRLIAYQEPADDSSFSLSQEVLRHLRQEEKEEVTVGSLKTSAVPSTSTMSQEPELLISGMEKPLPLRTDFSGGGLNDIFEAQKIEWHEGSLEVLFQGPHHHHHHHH", "test": "3H-cGAMP filtration binding assay (HAQ STING)", "settings": "competition with tritiated cGAMP, HAQ STING membrane; read-out: EC50 (nM), 3H-cGAMP filtration binding assay for HAQ STING", "source_text": "The ability of compounds to bind STING is quantified by the ability to compete with tritiated cGAMP ligand for human STING receptor membrane using a radioactive filter-binding assay. The binding assay employs STING receptor obtained from Hi-Five cell membranes overexpressing full-length HAQ STING prepared in-house and tritiated cGAMP ligand also purified in-house.\nThe ability of compounds to bind STING is quantified by their ability to compete with tritiated cGAMP ligand for human STING receptor membrane using a radioactive filter-binding assay.\nThe basic HAQ STING filtration assay protocol is as follows:\nCompound and membrane then preincubated for 60 min at RT to allow compound binding to equilibrate. Following equilibration, 8 nM of [^3H] c-GAMP ligand was prepared by diluting into assay buffer, and 50 uL of this working stock was then manually added to each well of the assay plate. […] The filter plates were then dried at 55° C. for 30 min using a pressurized VWR oven before 30 uL of Ultima GoldF scintillate was added to each well. Tritium levels for each reaction well were then measured using a PerkinElmer TopCount plate reader.\nAfter normalization to controls, the percent activity for each compound concentration was calculated by measuring the amount of remaining radioactivity. The plot of percent activity versus the log of compound concentration was fit with a 4-parameter dose response equation to calculate EC50 values.", "units": {"EC50": "nM"}}
{"smiles": "Nc1nc2c(ncn2[C@@H]2O[C@@H]3COP(=O)(S)O[C@H]4[C@@H](O)[C@H](n5ccc6c(N)ncnc65)O[C@@H]4COP(=O)(S)O[C@@H]2C3)c(=O)[nH]1", "note": "(single isomer, unassigned) [Example 79]", "EC50": 103}
{"smiles": "Nc1nc2c(nnn2[C@@H]2O[C@@H]3COP(=O)(O)O[C@H]4[C@@H](O)[C@H](n5cnc6c(N)ncnc65)O[C@@H]4COP(=O)(O)O[C@@H]2[C@@H]3O)c(=O)[nH]1", "note": "[Example 69, 5-amino-3-[(5R,7R,8R,12aR,14R,15R,15aS,16R)-14-(6-amino-9H-purin-9-yl)-2,10,15,16-tetrahydroxy-2,10-dioxidooctahydro-12H-5,8-methanofuro[3,2-l][1,3,6,9,11,2,10]pentaoxadiphosphacyclotetradecin-7-yl]-3,6-dihydro-7H-[1,2,3]triazolo[4,5-d]pyrimidin-7-one]", "EC50": "< 1"}
{"smiles": "Nc1nc2c(ncn2[C@@H]2O[C@@H]3CO[P@@](O)(=S)O[C@H]4[C@H](F)[C@H](n5cnc6c(N)ncnc65)O[C@@H]4CO[P@@](O)(=S)O[C@@H]2C3)c(=O)[nH]1", "note": "[Example 130, 2-amino-9-[(2R,5S,7R,8R,10R,12aR,14R,15S,15aR)-14-(6-amino-9H-purin-9-yl)-15-fluoro-2,10-dihydroxy-2,10-disulfidooctahydro-12H-5,8-methanofuro[3,2-l][1,3,6,9,11,2,10]pentaoxadiphosphacyclotetradecin-7-yl]-1,9-dihydro-6H-purin-6-one]", "EC50": "< 1"}
{"smiles": "Nc1nc2c(ncn2[C@@H]2O[C@@H]3COP(=O)(S)OC4[C@@H](COP(=O)(S)O[C@H]2C3)O[C@@H](n2cnc3c(N)ncnc32)[C@H]4F)c(=O)[nH]1", "note": "(single isomer, unassigned) [Example 132]", "EC50": 25.9}
{"tested_on": "IFN-β secretion in THP1 cells", "test": "IFN-β secretion in THP1 cell culture (5 h)", "type": "cell-based, human", "settings": "not given", "protocol": "(§1) The ability of compounds to stimulate the secretion of interferon-beta from THP1 cells was measured using a human IFN-β AlphaLISA kit (Perkin Elmer, Cat. No. AL265F). The basic protocol is as follows:\n(§2) The cell viability and count was ascertained using a Beckman Coulter V-Cell XR cell counter. The cells suspension was centrifuged at 200×g for 5 min at RT. […] Subsequent liquid transfers were performed using either a Matrix electronic multichannel pipette or an Agilent Bravo Automated Liquid Handling Platform.\n(§3) The assay was started by dispensing 40 μL of the previously prepared cell suspension into the wells of the plate containing compounds. After 5 h incubation at 37° C., 5% CO2 in a humidified atmosphere, the plate of cells and compounds was centrifuged at 200×g for 5 min at RT. […] To these supernatant-containing wells was added 10 μL of 5× Anti-Analyte Acceptor beads (50 μg/mL of AlphaLISA HiBlock Buffer) and incubated for 30 min at RT while shaking on an orbital plate shaker. To each well was added 10 μL of 5× Biotinylated Antibody Anti-analyte (5 nM in AlphaLISA HiBlock Buffer) and incubated on an orbital plate shaker for 60 min at RT or overnight at 4° C. To each well was added 25 μL of 2× SA-Donor beads (80 μg/mL in AlphaLISA HiBlock Buffer) and incubated for 30-45 min at RT in the dark while shaking on an orbital plate shaker. The plate was then read on a Perkin Elmer Envision (λex=680 nm, λem=[…]). The percent effect of the AlphaLISA signal at each compound concentration was calculated based on 30 uM cGAMP positive controls and 0.3% DMSO negative controls. The plot of percent effect versus the log of compound concentration was fit with a 4-parameter concentration response equation to calculate EC50 values.\n(§4) Compounds of the disclosure were evaluated for IFN-β secretion in THP1 cell culture as described above.", "units": {"% Effect at 30 μM relative to 2′3′-cGAMP": "%"}}
{"smiles": "Nc1nc2c(ncn2[C@@H]2O[C@@H]3COP(=O)(O)OC4C[C@H](n5cnc6c(N)ncnc65)O[C@@H]4COP(=O)(O)OC2C3F)c(=O)[nH]1", "note": "(stereo in doubt) [Example 22, 2-amino-9-[(5R,7R,8S,12aR,14R,15aS,16R)-14-(6-amino-9H-purin-9-yl)-16-fluoro-2,10-dihydroxy-2,10-dioxidooctahydro-12H-5,8-methanofuro[3,2-l][1,3,6,9,11,2,10]pentaoxadiphosphacyclotetradecin-7-yl]-1,9-dihydro-6H-purin-6-one]", "% Effect at 30 μM relative to 2′3′-cGAMP": 109}
{"smiles": "Nc1nc2c(ncn2[C@@H]2O[C@@H]3COP(=O)(O)OC4C(O)[C@H](n5cnc6c(N)ncnc65)O[C@@H]4COP(=O)(O)OC2C3F)c(=O)[nH]1", "note": "(stereo in doubt) [Example 5, (5R,7R,8S,12aR,14R,15R,15aS,16R)-7-(2-amino-6-oxo-1,6-dihydro-9H-purin-9-yl)-14-(6-amino-9H-purin-9-yl)-16-fluoro-15-hydroxyoctahydro-12H-5,8-methanofuro[3,2-l] [1,3,6,9,11,2,10]pentaoxadiphosphacyclotetradecine-2,10-diolate 2,10-dioxide]", "% Effect at 30 μM relative to 2′3′-cGAMP": 152}
{"smiles": "Nc1nc2c(ncn2[C@@H]2O[C@@H]3COP(=O)(O)O[C@H]4[C@H](O)[C@H](n5cnc6c(N)ncnc65)O[C@@H]4COP(=O)(O)O[C@@H]2[C@@H]3O)c(=O)[nH]1", "note": "[Example 48, 2-amino-9-[(5R,7R,8R,12aR,14R,15S,15aS,16R)-14-(6-amino-9H-purin-9-yl)-2,10,15,16-tetrahydroxy-2,10-dioxidooctahydro-12H-5,8-methanofuro[3,2-l][1,3,6,9,11,2,10]pentaoxadiphosphacyclotetradecin-7-yl]-1,9-dihydro-6H-purin-6-one]", "% Effect at 30 μM relative to 2′3′-cGAMP": 104}
{"smiles": "Nc1nc2c(ncn2[C@@H]2O[C@@H]3COP(=O)(O)O[C@H]4[C@@H](O)[C@H](n5cnc6c(N)ncnc65)O[C@@H]4COP(=O)(O)O[C@@H]2[C@H]3F)c(=O)[nH]1", "note": "[Example 52, 2-amino-9-[(5R,7R,8S,12aR,14R,15R,15aS,16S)-14-(6-amino-9H-purin-9-yl)-16-fluoro-2,10,15-trihydroxy-2,10-dioxidooctahydro-12H-5,8-methanofuro[3,2-l][1,3,6,9,11,2,10]pentaoxadiphosphacyclotetradecin-7-yl]-1,9-dihydro-6H-purin-6-one]", "% Effect at 30 μM relative to 2′3′-cGAMP": 143}
{"tested_on": "IFN-β secretion in THP1 cells", "test": "IFN-β secretion in THP1 cell culture (5 h)", "type": "cell-based, human", "settings": "IFN-β secretion in THP1 cell culture, 5 h; compound at 30 μM; percent activation relative to 2′3′-cGAMP", "protocol": "as §1, §2, §3, §4", "units": {"% Effect at 30 μM relative to 2′3′-cGAMP": "%"}}
{"smiles": "Nc1nc2c(ncn2[C@@H]2O[C@@H]3COP(=O)(S)OC4C5OC[C@]4(COP(=O)(S)OC2C3O)O[C@H]5n2cnc3c(N)ncnc32)c(=O)[nH]1", "note": "(single isomer, unassigned) [Example 94]", "% Effect at 30 μM relative to 2′3′-cGAMP": 138}
{"smiles": "Nc1nc2c(ncn2[C@@H]2O[C@@H]3COP(=O)(S)O[C@H]4[C@@H](O)[C@H](n5ccc6c(N)ncnc65)O[C@@H]4COP(=O)(S)O[C@@H]2C3)c(=O)[nH]1", "note": "(stereo partly drawn) [Example 80, 2-amino-9-[(5S,7R,8R,12aR,14R,15R,15aS)-14-(4-amino-7H-pyrrolo[2,3-d]pyrimidin-7-yl)-15-hydroxy-2,10-dioxido-2,10-disulfanyloctahydro-12H-5,8-methanofuro[3,2-l][1,3,6,9,11,2,10]pentaoxadiphosphacyclotetradecin-7-yl]-1,9-dihydro-6H-purin-6-one]", "% Effect at 30 μM relative to 2′3′-cGAMP": 234}
{"smiles": "Nc1nc2c(ncn2[C@@H]2O[C@@H]3COP(O)(=S)O[C@H]4[C@H](F)[C@H](n5cnc6c(N)ncnc65)O[C@@H]4COP(O)(=S)O[C@@H]2[C@@H]3F)c(=O)[nH]1", "note": "(single isomer, unassigned) [Example 244]", "% Effect at 30 μM relative to 2′3′-cGAMP": 96}
{"smiles": "Nc1nc2c(ncn2[C@@H]2O[C@@H]3COP(=O)(S)OC4[C@@H](COP(=O)(S)OC2C3O)O[C@@H](n2cnc3c(N)ncnc32)[C@H]4F)c(=O)[nH]1", "note": "(single isomer, unassigned) [Example 92]", "% Effect at 30 μM relative to 2′3′-cGAMP": 62}
{"smiles": "Nc1nc2c(ncn2[C@@H]2O[C@@H]3COP(=O)(S)OC4C(O)[C@H](n5cnc6c(N)ncnc65)O[C@@H]4COP(=O)(S)OC2C3)c(=O)[nH]1", "note": "(single isomer, unassigned) [Example 87]", "% Effect at 30 μM relative to 2′3′-cGAMP": 99}
{"smiles": "Nc1nc2c(nnn2[C@@H]2O[C@@H]3COP(=O)(S)O[C@H]4[C@H](F)[C@H](n5nnc6c(=O)[nH]cnc65)O[C@@H]4COP(=O)(S)O[C@@H]2[C@@H]3F)c(=O)[nH]1", "note": "(single isomer, unassigned) [Example 345]", "% Effect at 30 μM relative to 2′3′-cGAMP": 144}
{"smiles": "Nc1nc2c(ncn2[C@@H]2O[C@@H]3COP(=O)(O)O[C@H]4[C@H](F)[C@H](n5cnc6c(N)ncnc65)O[C@@H]4COP(O)(=S)O[C@@H]2[C@@H]3F)c(=O)[nH]1", "note": "(single isomer, unassigned) [Example 273]", "% Effect at 30 μM relative to 2′3′-cGAMP": 85}
{"smiles": "Nc1nc2c(ncn2[C@@H]2O[C@@H]3COP(=O)(O)O[C@H]4[C@H](F)[C@H](n5nnc6c(=O)[nH]cnc65)O[C@@H]4COP(=O)(S)O[C@@H]2[C@@H]3F)c(=O)[nH]1", "note": "(single isomer, unassigned) [Example 346]", "% Effect at 30 μM relative to 2′3′-cGAMP": 182}
{"smiles": "Nc1nc2c(ncn2[C@@H]2O[C@@H]3COP(=O)(S)OC4[C@@H](COP(=O)(S)O[C@H]2C3)O[C@@H](n2nnc3c(N)ncnc32)[C@H]4F)c(=O)[nH]1", "note": "(stereo partly drawn) [Example 133, 2-amino-9-[(5S,7R,8R,12aR,14R,15S,15aR)-14-(7-amino-3H-[1,2,3]triazolo[4,5-d]pyrimidin-3-yl)-15-fluoro-2,10-dihydroxy-2,10-disulfidooctahydro-12H-5,8-methanofuro[3,2-l][1,3,6,9,11,2,10]pentaoxadiphosphacyclotetra-decin-7-yl]-1,9-dihydro-6H-purin-6-one]", "% Effect at 30 μM relative to 2′3′-cGAMP": 117}
